Data set [1] addresses T1, GLP-1R (Homo sapiens, UniProt P43220). As to the kind of experiment: GLP-1R cAMP assay of peptides (Tables 10, 14, 15). Type of data set: cell-based. For orientation: cAMP levels reflect the balance of adenylyl cyclase and phosphodiesterase activity.
The nature of data set [2]: Metabolite study in human liver S9 (high resolution LC-MS). Type of data set: in vitro ADME. Here is the method:
Metabolite studies were conducted using Q-M3190 and Q-6009 (Q is Glutamine).
Liver S9 is the supernatant obtained by grinding and centrifuging the liver cells. The enzymes content is lower compared to Hepatocytes. It mainly contains CYP enzymes and some biphasic enzymes (but no biphasic coenzyme), so additional coenzyme (NADPH and UDPGA, etc.) is needed to mediate the biphasic reaction.

The nature of data set [3]: pH stability (special liability). It is filed as physicochemical.
A short description of data set [4]: physchem.
The target in data set [5] is T1, GLP-1R. As to the kind of experiment: CRE-Luc cAMP responsive luciferase reporter assay in HEK293/CRE-Luc/hGLP1R cells. It is filed as cell-based. The arrangement: engineered to express full-length human GLP1R (GenBank: AAI12127.1) (HEK293/CRE-Luc/hGLP1R); expressed in transfected cells; host or cells: HEK293/CRE-Luc (HEK293/FSC11/pCDNA3.1 + GLP1R, ACL6822). Particulars: for Emax: HEK293, read-out: Emax (% GLP-1), CRE-dependent reporter activity, HEK293/CRE-Luc/hGLP1R. An excerpt:
To test the activity of GLP1R agonist linker-payloads (LPs) and anti-GLP1R antibody-tethered ligands (ATLs) of the invention, a cell-based cAMP responsive luciferase reporter assay was developed. To generate the assay cell line, the firefly luciferase gene was placed under the control of four copies of a cAMP response element (4×CRE) located upstream of a minimal promoter and transfected into HEK293 cells and referred to herein as HEK293/CRE-Luc cells. HEK293/CRE-Luc cells were then engineered to express full-length human GLP1R (GenBank: AAI12127.1) (HEK293/CRE-Luc/hGLP1R).
(§1) For all assays, cells were seeded into 384-well plates (Falcon #353988) at 6,000 cells/well in assay media (Opti-MEM, 1% FBS, 1×Penicillin-Streptomycin) and incubated overnight at 37° C. Serial dilutions of the anti-GLP1R ATLs and non-binding control ATLs were performed in assay media. Serial dilutions of linker-payloads (LPs) were performed in 100% DMSO (ATCC, #4-X-5), followed by 1:100 dilution in assay media. Test articles were added to cells (1:5 dilution) using VIAFLO 384 (Integra) with the last well in each serial dilution series serving as a blank control containing only assay media for ATLs or assay media with 0.2% DMSO for LPs. The blank was plotted as a continuation of the serial dilution.
For the CRE-Luc assay, after a 5-hours incubation at 37° C., luciferase activity was determined by addition of ONE-Glo reagent (Promega, #E6130) followed by measurement of relative light units (RLUs) on EnVision Plate Reader (Perkin Elmer).
(§2) EC50 values for luminescence assays were determined using a four-parameter logistic equation over a 12-point dose response curve (GraphPad Prism).
For orientation: In a reporter assay the amount or activity of a reporter protein is the signal.

The target of data set [6] is T1, GLP-1R. As to the kind of experiment: b-arrestin 2 recruitment enzyme fragment complementation assay in HEK293/b-arrestin2/hGLP1R cells. Type of data set: cell-based. Also noted: The full-length human GLP1R (NP_002053.3) with a C-terminus fusion to a small b-gal fragment called enzyme donor or ProLink (PK); host or cells: HEK293/b-arrestin2-EA (HEK293/Barrestin clone 2C6/hGLP1R-Prolink1 high sorted, ACL21687).
Description: To test the recruitment of b-arrestin 1 and b-arrestin 2 to GLP1R upon receptor activation, two enzyme fragment complementation assays were developed. To generate the assay cell lines, b-arrestin 1 fused to the b-galactosidase (b-gal) reporter fragment called enzyme acceptor (EA) (i.e., b-arrestin1-EA) or b-arrestin 2 fused to the b-gal reporter fragment EA (i.e., b-arrestin2-EA) were transduced into HEK293 cells using PathHunter b-Arrestinl Retroparticles (DiscoverX, #83-OT-TB-N-01) or PathHunter b-Arrestin2 Retroparticles (DiscoverX, #93-1087), respectively. The full-length human GLP1R (NP_002053.3) with a C-terminus fusion to a small b-gal fragment called enzyme donor or ProLink (PK) (i.e., hGLP1R-PK) was then engineered into HEK293/b-arrestinl-EA cells and HEK293/b-arrestin2-EA cells to generate the cell lines referred herein as HEK293/b-arrestin1/hGLP1R and HEK293/b-arrestin2/hGLP1R. Recruitment of b-arrestin 1 or b-arrestin 2 to GLP1R in these reporter cell lines brings both b-gal fragments (EA and PK) into close proximity, leading to reconstitution of a fully functional enzyme capable of hydrolyzing a substrate and generating a chemiluminescent signal.
as §1
For b-arrestin 1 and b-arrestin 2 recruitment assays, after a 1-hour incubation at 37° C., PathHunter Detection Reagent (Eurofins DiscoverX, #93-0001) was added to the wells followed by a 1-hour incubation at room temperature. RLUs were measured on EnVision Plate Reader (Perkin Elmer).
as §2
(Activated receptors often draw arrestin, which recruitment assays turn into a signal.)

Data set [7] can be described thus: Solubility in water.
Data set [8] relates to GLP1R humanized mouse. As to the kind of experiment: In vivo conversion of c-M3190 ATL to c-M6009 after s.c. dosing. Particulars: 7 days. Here is the method:
From a tryptic digestion of the parent M3190-ATL, peptide c-M3190 is a peptide and their structures/sequences were determined by high resolution mass spectroscopy as shown below.
11.4 Syntheses and Characterization of Peptide Compounds Identified from M3190 Metabolite Study

The target of data set [9] is T2, GLP-1R of the cAMP assay of Tables 10, 14 and 15 (human, UniProt P43220 24-463, limits assumed). Nature of the data set: cell-based or functional assay.
For data set [10], the target named is full-length human GLP1R (GenBank: AAI12127.1) expressed on HEK293/CRE-Luc/hGLP1R cells (human, UniProt P43220 24-463). Nature of the data set: cell-based or functional assay.
Data set [11] deals with hGLP1R-PK: full-length human GLP1R (NP_002053.3) with a C-terminus fusion to ProLink (PK), on … (human, UniProt P43220 24-463). Nature of the data set: cell-based or functional assay.
Data set [12] addresses T2, GLP-1R of the cAMP assay of Tables 10, …. As to the kind of experiment: cell-based or functional assay. The source holds these as a separate data set.

Values joined by “and” are separate entries in the source; they are usually repeats but may differ in a detail not shown here. Equal values may be shown once. Non-standard residues stand in square brackets, D forms with d. Groups on a side chain read outwards from the residue. No end group written: not given here. M3190 payload = not defined here; AA10 = not defined here; AA1 = not defined here; AA2 = not defined here; AA6 = not defined here; AA9 = not defined here

T1 sequence (P43220 24-463): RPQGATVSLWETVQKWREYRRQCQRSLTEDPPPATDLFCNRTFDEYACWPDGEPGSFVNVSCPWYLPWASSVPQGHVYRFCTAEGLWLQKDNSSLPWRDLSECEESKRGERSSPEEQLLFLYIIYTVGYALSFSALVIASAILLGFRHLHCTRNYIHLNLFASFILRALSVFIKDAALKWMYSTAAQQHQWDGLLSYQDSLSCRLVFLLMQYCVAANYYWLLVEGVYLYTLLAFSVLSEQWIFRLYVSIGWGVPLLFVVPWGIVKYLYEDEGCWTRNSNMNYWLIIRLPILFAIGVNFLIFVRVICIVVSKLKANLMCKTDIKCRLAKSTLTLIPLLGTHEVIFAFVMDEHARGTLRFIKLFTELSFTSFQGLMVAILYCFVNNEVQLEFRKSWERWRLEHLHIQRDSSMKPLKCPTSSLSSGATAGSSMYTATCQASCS

Take `CCc1cc(OCCCCn2cc(COCCOCCOCCOCCOCCOCCOCCOCCN)nn2)ccc1-c1ccc(C[C@H](NC(=O)[C@H](CC(=O)O)NC(=O)[C@H](CO)NC(=O)[C@@H](NC(=O)C(C)(Cc2ccccc2F)NC(=O)[C@@H](NC(=O)CNC(=O)[C@H](Cc2nn[nH]n2)NC(=O)C(C)(C)C(=O)NCCc2cnc[nH]2)[C@@H](C)O)[C@@H](C)O)C(=O)N[C@@H](CCCc2cc(C)cc(C)c2)C(=O)O)cc1` (some centres unmarked) [M6009]: the “GLP-1R CAMP Max” value in data set [1] (Table 10) came out at 139.7%. Besides, the concentration giving a half-maximal response (EC50) (usually the concentration at which the effect is half-maximal) in data set [1] (Table 10, read-out: GLP-1R CAMP EC50) amounted to 2.23 nM. In addition, in data set [2] (Q-M6009 in human liver S9, text), the “amount remaining / detected after incubation of Q-M6009” value was 93%. The “Relative Abundance (% Total)” value is given as 2.34 % Total in data set [2] (metabolites of Q-M3190 at 4 hours in human liver S9) and 13.14 % Total in data set [2] (metabolites of Q-M6009 at 4 hours in human liver S9). Also, the Special liability result in [3] is “stable at pH <3 or pH >11, and unstable at PH <1”. In addition, the solubility (as a rule, the concentration that dissolves in the medium under given conditions) in data set [4] is > 70000 µg/mL and > 30000 µM. Further, the Emax in data set [5] was 92.1%. In addition, the “CRE-dependent luciferase reporter activity (in words)” value in data set [5] (HEK293/CRE-Luc/hGLP1R cells) is given as “comparable activities as that of M3190”. Besides, the “b-arrestin 2 recruitment (in words)” value in [6] (HEK293/b-arrestin2/hGLP1R cells) is “comparable activities as that of M3190”.
`CCc1cc(OCCCCn2cc(COCCOCCOCCOCCOCCOCCOCCOCCN)nn2)ccc1-c1ccc(C[C@H](NC(=O)[C@H](CC(=O)O)NC(=O)[C@H](CO)NC(=O)[C@@H](NC(=O)C(C)(Cc2ccccc2F)NC(=O)[C@@H](NC(=O)CNC(=O)[C@H](Cc2nnn[nH]2)NC(=O)C(C)(C)C(=O)NCCc2cnc[nH]2)[C@@H](C)O)[C@@H](C)O)C(=O)O)cc1` (some centres unmarked) [M6324]: the concentration giving a half-maximal response (EC50) in data set [1] was 882 nM; in data set [6], greater than 1000 nM. Besides, in [1] (Table 10), the “GLP-1R CAMP Max” value came out at 53.33%. Further, in data set [7], the solubility is > 70000 µg/mL and > 30000 µM. Further, the Emax in data set [5] worked out at 91.6%; in data set [6] (HEK293, read-out: Emax (% GLP-1), b-Arrestin2 recruitment, HEK293/b-arrestin2/hGLP1R) it was 0.7%; in data set [6] (read-out: b-arrestin 2 recruitment Emax relative to GLP-1, HEK293/b-arrestin2/hGLP1R cells), 0.7%.
Turning to “c-M3190 ATL: "Peptide C-M3190 identified from metabolite studies of M3190-antibody conjugate"; "From a tryptic digestion of the parent M3190-ATL" (LLQ(M3190 payload)GSGDIQMTQSPSSVSASVGDR; reading uncertain)”, the “conversion of c-M3190 ATL to c-M6009” value in [8] is “slowly converted to c-M6009 after 7 days”.

B1: M6009 (AA10-AA9-AA8-AA7-AA6-AA5-AA4-AA3-(L)AA2-AA1-OH) (peptide)
peptide: [AA10][AA9]GT[AA6]TSD[AA2](Leu)[AA1]-OH
modifications: reading uncertain; also: also named NH2-PEG8-triazole-P8 acid, printed as M6009 (AA10-AA9-AA8-AA7-AA6-AA5-AA4-AA3-(L)AA2-AA1-OH)
Regarding B1, in data set [9], the “GLP-1R CAMP EC50” value amounted to 2.23 nM and the “GLP-1R CAMP Max (%)” value came to 140%. In addition, in data set [10], the “EC50 (M), CRE-dependent reporter activity, HEK293/CRE-Luc/hGLP1R” value worked out at 4.64e-10 M and the “Emax (% GLP-1), CRE-dependent reporter activity, HEK293/CRE-Luc/hGLP1R” value came to 92.1 % GLP-1.

B2: M6324 (AA10-AA9-AA8-AA7-AA6-AA5-AA4-AA3-(L)AA2-OH) (peptide)
peptide: [AA10][AA9]GT[AA6]TSD[AA2](Leu)-OH
modifications: reading uncertain; also: printed as M6324 (AA10-AA9-AA8-AA7-AA6-AA5-AA4-AA3-(L)AA2-OH)
Turning to B2, in data set [9], the “GLP-1R CAMP EC50” value is 882 nM and the “GLP-1R CAMP Max (%)” value was 53.3%. Besides, in [10], the “EC50 (M), CRE-dependent reporter activity, HEK293/CRE-Luc/hGLP1R” value turned out to be 2.93e-07 M and the “Emax (% GLP-1), CRE-dependent reporter activity, HEK293/CRE-Luc/hGLP1R” value was determined as 91.6 % GLP-1. Moreover, in [11], the “EC50 (M), b-Arrestin2 recruitment, HEK293/b-arrestin2/hGLP1R” value is greater than 1e-06 M and the “Emax (% GLP-1), b-Arrestin2 recruitment, HEK293/b-arrestin2/hGLP1R” value turned out to be 0.7 % GLP-1.

B3: Q-M3190 (AA10-AA9-AA8-AA7-AA6-AA5-AA4-AA3-(Q-L)AA2-AA1-NH2) (peptide)
peptide: [AA10][AA9]GT[AA6]TSD[AA2]([Leu-Gln])[AA1]-NH2
modifications: reading uncertain; also: printed as Q-M3190 (AA10-AA9-AA8-AA7-AA6-AA5-AA4-AA3-(Q-L)AA2-AA1-NH2)
On to B3, for which the “cAMP EC50 (nm)” value in data set [12] amounted to 1.07 nm.

(Values after US20250171516A1, “PEPTIDE ACIDS AS A GLP1R AGONIST AND ANTIBODY-DRUG CONJUGATES THEREOF” (Regeneron Pharmaceuticals, Inc., priority 2023, published 2025).)
